Results as given in patent US20230355646A1, “AUTOPHAGY ACTIVATOR” (Resonac Corporation, priority 2020, published 2023).

Tested on: ATG7 gene
Test: ATG7 gene expression promoting effect in human senescent fibroblasts (quantitative real-time PCR)
Format: cell-based
Description: Normal human fibroblasts (NB1RGB, RIKEN BRC Cell Bank) were cultured until confluent in D-MEM medium (manufactured by Sigma-Aldrich) to which 10% fetal bovine serum (manufactured by MP Biomedicals) was added. Thereafter, the cells were treated with 250 μM aqueous hydrogen peroxide for 2 hours, and cultured for 24 hours in D-MEM medium to which fresh 10% fetal bovine serum was added. The treatment with aqueous hydrogen peroxide and the cell culture operation were repeated three times, and the obtained fibroblasts were used as senescent fibroblasts.
The prepared senescent fibroblasts were prepared at a seeding density of 10000 cells/cm^2 and cultured for 24 hours in D-MEM medium (manufactured by Sigma-Aldrich) to which 10% fetal bovine serum (manufactured by MP Biomedicals) was added. […]
Then, using Nucleospin (registered trademark) RNA kit (manufactured by Takara Bio Inc.), RNA was extracted from senescent fibroblasts or normal human fibroblasts in each example, and cDNA was synthesized from the obtained RNA. Next, using this cDNA as a template, by quantitative real-time PCR, the expression level of each gene was quantified using primers (manufactured by Takara Bio Inc.) specific to the LC3 gene, ATG5 gene, and ATG7 gene, respectively. […]

Structure (SMILES): COc1ccc([C@@H]2CC(=O)c3c(O)cc(O[C@@H]4O[C@H](CO[C@@H]5O[C@@H](C)[C@H](O)[C@@H](O)[C@H]5O)[C@@H](O)[C@H](O)[C@H]4O)cc3O2)cc1O [Comparative Example 2, hesperidin]
- Relative gene expression level ATG7 (10^−2% (V/V) methyl hesperidin or hesperidin, additional ingredient where in the example, 24 hours, Comparative Example 1 (DMSO) = 1.00): 0.76
- expression level of the ATG7 gene (in words) (compared to DMSO only of Comparative Example 1): more decreased
